Assay results as given in patent publication US11542282B2, “Low affinity poly(AD-ribose) polymerase 1 dependent cytotoxic agents” (THE TRUSTEES OF THE UNIVERSITY OF PENNSYLVANIA, priority 2018, dated 2023).

Columns and labels:
[1] = Metabolic stability in rodent studies (mice blood and brain); type: in vivo; conditions: 5 min
Description: Rodent studies were then performed with [^18F]31, including control and P-gp knockout (k/o) mice models to validate the tracer as a non-P-gp substrate.

[2] = Metabolite analysis of monkey blood from the imaging studies; type: in vivo, rhesus macaques
Description: (§1) All animal studies were performed under protocols approved by the University of Pennsylvania Institutional Animal Care and Use Committee. Male rhesus macaques (13-21 year old) were sedated with ketamine/dexdomidor and anesthesia maintained for imaging with 1% isoflurane. Temperature was maintained with a recirculating water warm pad and vital signs such as blood pressure, pulse oximetry, and EKG were monitored continuously. Three rhesus macaques were scanned on the G-PET, a high sensitivity, high resolution PET scanner using gadolinium orthosilicate crystals incorporated into an Anger-logic detector developed for brain imaging. […]
The blood samples were centrifuged at 3000 G for 10 min to separate plasma and red blood cells. […] After the supernatant had been separated from the pellet, each portion was counted with a gamma counter (PerkinElmer Wizard 2480) to determine the extraction efficiency. […] The collected HPLC fractions were measured by Gamma Counter for further data analysis. Meanwhile the cold reference was also injected and monitored at 254 nm UV wavelength.
(§2) These images are similar to the those obtained and expected with [^18F]FTT (FIG. 5B), showing the PARPi to be non-BBB penetrable. Metabolic stability of [^18F]31 was assessed using the monkey blood from each imaging study and found 42% and 45% of the parent compound intact at 40 min and 37 min, respectively.

[3] = PET imaging of brain uptake in rhesus macaques; type: in vivo; conditions: intravenous injection, all brain regions, FIG. 5A
Description: as §1, with “imaging. Data was acquired for up to 50 min (6×10 sec, 3×60 sec, 3×120 sec, 3×180 sec, 4×300 sec, and 1 ×600 sec) in list mode after an intravenous injection of 101.6 MBq [^18F]FTT to one of the rhesus macaques, and 91.4-128.8 MBq [^18F]31 to two of the rhesus macaques. A venous blood sample was drawn into a heparinized syringe at 37 min post […] injection for metabolite analysis.” for “imaging.”
as §2

decomposition of the parent compound [1]: over 80%
parent compound intact ([2]; 37 min): 45%
parent compound intact ([2]; 40 min): 42%
brain uptake (PET) [3]: low brain uptake
brain uptake (PET) ([3]; listed as [18F]31): no appreciable brain uptake
SMILES: O=C(c1cc(Cc2n[nH]c(=O)c3ccccc23)ccc1F)N1CCC(OCC[18F])CC1 [[^18F]31]
